From ChEMBL document CHEMBL4251602, “Synthesis and biological evaluation of novel 1-(aryl-aldehyde-oxime)uracil derivatives as a new class of thymidine phosphorylase inhibitors” (Eur J Med Chem, 2018)

T1: Thymidine phosphorylase (Homo sapiens, UniProt P19971)
T1 sequence (P19971 whole entry): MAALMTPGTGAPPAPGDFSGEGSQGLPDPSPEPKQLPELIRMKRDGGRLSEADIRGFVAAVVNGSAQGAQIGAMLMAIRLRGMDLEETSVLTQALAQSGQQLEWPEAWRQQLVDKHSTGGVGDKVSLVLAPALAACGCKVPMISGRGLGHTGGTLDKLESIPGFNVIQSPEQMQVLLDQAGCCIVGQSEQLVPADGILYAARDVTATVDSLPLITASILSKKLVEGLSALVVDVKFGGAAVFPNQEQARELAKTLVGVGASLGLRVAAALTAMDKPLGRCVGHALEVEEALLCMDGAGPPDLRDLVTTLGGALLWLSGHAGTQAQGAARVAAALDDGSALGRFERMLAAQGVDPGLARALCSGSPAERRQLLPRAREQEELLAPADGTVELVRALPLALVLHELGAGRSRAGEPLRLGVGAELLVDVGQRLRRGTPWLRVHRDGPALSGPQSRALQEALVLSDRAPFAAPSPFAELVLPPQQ


Experiments:
Thymidine phosphorylase = molecular target: T1, Thymidine phosphorylase
[1] = Stability in water assessed as parent pure compound remaining at 1 mg measured within 10 days by HPLC analysis (reference value: 95%); format: physicochemical; details: read-out: Stability
NIH3T3 [2] = assay: Cytotoxicity against mouse 3T3 cells at 50 uM by SRB assay; format: cell-based; details: nih3t3, 50 µM
[3] = Stability in bovine serum assessed as parent pure compound remaining at 1 mg measured within 10 days by HPLC analysis; format: ADME, cell-free, Bos taurus; details: cattle, 240 h
NIH3T3 [4] = assay: Cytotoxicity against mouse 3T3 cells by SRB assay; format: functional, cell-based
[5] = substrate: Cc1cc(=O)[nH]c(=O)n1/C(=N\O)c1ccc(Cl)c(Cl)c1; details: Homo sapiens

| Molecule | IC50 (Thymidine phosphorylase) [µM] | also measured |
| --- | --- | --- |
| O=c1[nH]c(=O)n(/C(=N/O)c2ccc(Cl)cc2)cc1I | 15.6 |  |
| Cc1ccc(/C(=N\O)n2cc(I)c(=O)[nH]c2=O)cc1 | 22.5 |  |
| COc1ccc(/C(=N/O)n2c(C)cc(=O)[nH]c2=O)cc1 | 16.5 |  |
| Cc1cc(=O)[nH]c(=O)n1/C(=N\O)c1ccc(Cl)c(Cl)c1 | 0.12 | remaining at 240 h [1]: 87%; Activity (NIH3T3 [2]): Non-Toxic; Stability [3]: Stable |
| Cc1cc(=O)[nH]c(=O)n1/C(=N\O)c1cccs1 | 39.9 |  |
| CCc1ccc(/C(=N\O)n2cc(I)c(=O)[nH]c2=O)cc1 | 10.7 |  |
| COc1ccc(/C(=N\O)n2cc(I)c(=O)[nH]c2=O)cc1 | 25.2 |  |
| CCc1ccc(/C(=N/O)n2c(C)cc(=O)[nH]c2=O)cc1 | 3.4 | Activity (NIH3T3 [2]): Non-Toxic |
| O=c1[nH]c(=O)n(/C(=N/O)c2ccccc2F)cc1I | 53.7 |  |
| C[C@@H]1C[C@@H]([C@H](O)CC2CC(=O)NC(=O)C2)C(=O)[C@@H](C)C1 [CYCLOHEXIMIDE] |  | IC50 (NIH3T3 [4]): 0.3 µM |
| O=c1[nH]c(=O)n(/C(=N/O)c2ccccc2)cc1I | 37.3 |  |
| O=c1[nH]c(=O)n(/C(=N/O)c2ccc(F)cc2)cc1I | 41.3 |  |
| Cc1cc(=O)[nH]c(=O)n1/C(=N\O)c1ccc(F)cc1 | 44.1 |  |
| Cc1ccc(/C(=N/O)n2c(C)cc(=O)[nH]c2=O)cc1 | 7.2 | Activity (NIH3T3 [2]): Non-Toxic |
| Cc1cc(=O)[nH]c(=O)n1/C(=N\O)c1ccc(Cl)cc1 | 1.4 | Activity (NIH3T3 [2]): Non-Toxic |
| COc1cccc(/C(=N\O)n2cc(I)c(=O)[nH]c2=O)c1 | 33.4 |  |
| Thymidine phosphorylase (Homo sapiens), P19971 (protein) MAALMTPGTGAPPAPGDFSGEGSQGLPDPSPEPKQLPELIRMKRDGGRLSEADIRGFVAAVVNGSAQGAQIGAMLMAIRLRGMDLEETSVLTQALAQSGQQLEWPEAWRQQLVDKHSTGGVGDKVSLVLAPALAACGCKVPMISGRGLGHTGGTLDKLESIPGFNVIQSPEQMQVLLDQAGCCIVGQSEQLVPADGILYAARDVTATVDSLPLITASILSKKLVEGLSALVVDVKFGGAAVFPNQEQARELAKTLVGVGASLGLRVAAALTAMDKPLGRCVGHALEVEEALLCMDGAGPPDLRDLVTTLGGALLWLSGHAGTQAQGAARVAAALDDGSALGRFERMLAAQGVDPGLARALCSGSPAERRQLLPRAREQEELLAPADGTVELVRALPLALVLHELGAGRSRAGEPLRLGVGAELLVDVGQRLRRGTPWLRVHRDGPALSGPQSRALQEALVLSDRAPFAAPSPFAELVLPPQQ |  | Km [5]: 2000 µM |

The next lines start with results.

| IC50 (Thymidine phosphorylase) [µM] | Molecule | also measured |
| --- | --- | --- |
| 85.6 | CO/N=C(\c1ccccc1)n1c(C)cc(=O)[nH]c1=O |  |
| 15.9 | Cc1cccc(/C(=N/O)n2c(C)cc(=O)[nH]c2=O)c1 |  |
| 25.1 | COc1cccc(/C(=N/O)n2c(C)cc(=O)[nH]c2=O)c1 |  |
| 92.4 | Cc1cc(=O)[nH]c(=O)n1C(=O)c1ccccc1 |  |
| 49.3 | Cc1cc(=O)[nH]c(=O)n1/C(=N\O)c1ccccc1F |  |
| 2.7 | Cc1cc(=O)[nH]c(=O)n1/C(=N\O)c1ccc(Br)cc1 |  |
| 41.2 | Cc1cc(=O)[nH]c(=O)n1/C(=N\O)c1cccc(F)c1 |  |
| 21.4 | Cc1cc(=O)[nH]c(=O)n1/C(=N\O)c1ccccc1 |  |
